Data taken from patent publication US20110251379A1, “COMPOUNDS USEFUL FOR TREATING NEURODEGENERATIVE DISORDERS” (Satori Pharmaceuticals, Inc., priority 2010, published 2011).

Tested on: amyloid-beta (1-42) peptide
Assay: ELISA assay of amyloid-beta (1-42) in conditioned media of 2B7 cells
Assay type: cell-based
Details: for inhibition at 10 µM: Aβ-42, 10 umol/L; for IC50: 5 h, Aβ-42, 2B7 cells, 5 hours, read-out: IC50 range
Protocol: Compounds of the present invention, and extracts comprising said compounds, may be assayed as inhibitors of amyloid-beta (1-42) peptide in vitro or in vivo. Such assay methods are described in detail in U.S. Pat. No. 6,649,196, the entirety of which is hereby incorporated herein by reference.
In certain embodiments, provided compounds of the present invention, and extracts comprising said compounds, were assayed as inhibitors of amyloid-beta (1-42) peptide in vitro using an ELISA assay.
Capture Plate Prep: • 6E10 was diluted to 5.0 ug/mL in 100 mM NaHCO3 pH 8.2 (10 ug aliquot per 2 mL buffer); • 100 uL capture antibody solution was added to wells of 96 well plate; • Incubated overnight at 4° C. sealed; • Aspirated off capture antibody; and • Blocked with 250 uL of Blocking Buffer for 2-4 hours at rt sealed.
Conditioned Media: • Cultured 2B7 cells in 96 well plate with 250 uL of media per well until confluent; • Prepared serial dilution of compounds in DMSO at 100× the final desired concentration; • Washed wells with 2B7 cells lx with 250 uL of media; • Diluted DMSO stocks 1:100 into media and mix; and • Added 250 μL of media containing compounds (1% DMSO) to wells with 2B7 cells for 5 hours at 37° C.
Elisa Sample Prep: • Diluted conditioned media 1:2 into blocking buffer; • NOTE: If assaying for A-Beta 1-40 or total A-Beta, then diluted above sample 1:10 with a 50/50 mixture of non-conditioned media containing 1% DMSO and blocking buffer.
Standard Curve Sample Prep: • Diluted appropriate A-Beta peptide stock (stored in 1% NH4OH) to 200 μg/mL in blocking buffer; • Prepared a 1:2 serial dilution from the 200 μg/mL sample (150 μL into 150 μL blocking buffer); and • Added equal volume of standard curve samples to non-conditioned media with 1% DMSO.
Overnight Sample Incubation: • Aspirated blocking buffer from blocked plate; • Added 100 μL of samples to wells of plate (samples will be 50% media with 1% DMSO and 50% blocking buffer; and • Incubated overnight at 4° C. sealed.
Addition of Detection Antibody: • Aspirated off samples, wash 2× with 250 μL blocking buffer; and • Added 100 μL detection antibody labeled with HRP at 0.25 ug/mL in blocking buffer for 4 hours at room temperature sealed.
Final Wash and Readout: • Aspirated wells, wash 5× with 250 μL of PBS-T (2 minutes each wash at 30 RPM); • Added 100 μL TMB for 20 minutes; • Added 100 μL of 1M H3PO4; and • Read at 450 nm.
Coating Buffer (100 mM NaHCO3 pH 8.2)
PBS-T (PBS with 0.05% Tween-20)
Blocking Buffer (1% BSA in PBS-T)

[1] = Aβ-42, 20 umol/L, read-out: % Inhibition (range)

SMILES	IC50	other results
C[C@@H]1CC[C@@]2(NC1)OC1C[C@H]3C4CC=C5C[C@@H](O)CC[C@]5(C)C4CC[C@]3(C)C1[C@@H]2C (stereo partly shown)		inhibition at 2.5 µM (Aβ-42, 2.5 umol/L, read-out: % Inhibition (range)): < 25%
C[C@@H]1C(O)CO[C@@]2(O)C[C@H]3[C@@H]4CC=C5C[C@@H](O[Si](C)(C)C(C)(C)C)CC[C@]5(C)[C@H]4CC[C@]3(C)[C@@H]12 (stereo partly shown)		inhibition at 10 µM (read-out: % Inhibition (range)): < 25%
C[C@@H]1C(I)COC2C[C@H]3[C@@H]4CC=C5C[C@@H](O)CC[C@]5(C)[C@H]4CC[C@]3(C)C21 (stereo partly shown)		inhibition at 10 µM (read-out: % Inhibition (range)): < 25%
CC(=O)O[C@H]1CC[C@]23C[C@]24CC[C@]2(C)C5C(C[C@@]2(C)C4CCC3C1(C)C)OC(O)(C(F)(F)F)C[C@H]5C (stereo partly shown)		inhibition at 10 µM (read-out: % Inhibition (range)): < 25%
CC(=O)O[C@H]1CC[C@]23C[C@]24CC[C@]2(C)C5C(C[C@@]2(C)[C@@H]4CC[C@H]3C1(C)C)OC(C(F)(F)F)=C[C@H]5C (stereo partly shown)		inhibition at 10 µM (read-out: % Inhibition (range)): < 25%
CC1O[C@@H]([C@H]2C[C@@H](C)C3C(O2)[C@H](O)[C@@]2(C)[C@@H]4CC[C@H]5C(C)(C)[C@@H](O)CC[C@@]56C[C@@]46CC[C@]32C)C(C)(C)O1 (stereo partly shown)		inhibition at 10 µM (read-out: % Inhibition (range)): < 25%
CC(=O)O[C@@H]([C@H]1C[C@@H](C)C2=C(O1)C(=O)[C@@]1(C)[C@@H]3CC[C@H]4C(C)(C)C(=O)CC[C@@]45C[C@@]35CC[C@]21C)C(C)(C)O		inhibition at 10 µM (read-out: % Inhibition (range)): < 25%
CC(=O)O[C@H]1CC[C@]23C[C@]24CC[C@]2(C)C5C(C[C@@]2(C)C4CCC3C1(C)C)OC(C(F)(F)F)=C[C@H]5C (stereo partly shown)		inhibition at 10 µM (read-out: % Inhibition (range)): < 25%
CC1COC2C[C@H]3[C@@H]4CCC5C[C@@H](O)CC[C@]5(C)[C@H]4CC[C@]3(C)C2[C@@H]1C (stereo partly shown)		inhibition at 10 µM (read-out: % Inhibition (range)): < 25%
C[C@@H]1C=C(C(F)(F)F)OC2C[C@@]3(C)C4CCC5C(C)(C)[C@@H](O)CC[C@@]56C[C@@]46CC[C@]3(C)C21 (stereo partly shown)		inhibition at 10 µM (read-out: % Inhibition (range)): 25 to 75%
CC(=O)O[C@@H]([C@H]1C[C@@H](C)C2C(O1)[C@H](O)[C@@]1(C)[C@@H]3CC[C@H]4C(C)(C)[C@@H](OC(=O)CN(C)C)CC[C@@]45C[C@@]35CC[C@]21C)C(C)(C)O (stereo partly shown)	≤ 1000 nM	
CC(=O)O[C@@H]([C@H]1C[C@@H](C)C2C(O1)[C@H](O)[C@@]1(C)[C@@H]3CC[C@H]4C(C)(C)[C@@H](OC(=O)c5ccccn5)CC[C@@]45C[C@@]35CC[C@]21C)C(C)(C)O (stereo partly shown)	≤ 1000 nM	
CC(=O)O[C@@H]([C@H]1C[C@@H](C)[C@H]2[C@H](O1)[C@H](O)[C@@]1(C)[C@@H]3CC[C@H]4C(C)(C)[C@@H](O[C@H]5CN(CCN(C)C)CCO5)CC[C@@]45C[C@@]35CC[C@]21C)C(C)(C)O	≤ 1000 nM	
CC(=O)O[C@@H]([C@H]1C[C@@H](C)[C@H]2[C@H](O1)[C@H](O)[C@@]1(C)[C@@H]3CC[C@H]4C(C)(C)[C@@H](O[C@H]5CN(CCN6CCCC6)CCO5)CC[C@@]45C[C@@]35CC[C@]21C)C(C)(C)O	≤ 1000 nM	
CC(=O)O[C@@H]([C@H]1C[C@@H](C)[C@H]2[C@H](O1)[C@H](O)[C@@]1(C)[C@@H]3CC[C@H]4C(C)(C)[C@@H](O[C@H]5CN(C6CCC6)CCO5)CC[C@@]45C[C@@]35CC[C@]21C)C(C)(C)O	≤ 1000 nM	
CC(=O)O[C@@H]([C@H]1C[C@@H](C)[C@H]2[C@H](O1)[C@H](O)[C@@]1(C)[C@@H]3CC[C@H]4C(C)(C)[C@@H](O[C@H]5CN(CCO)CCO5)CC[C@@]45C[C@@]35CC[C@]21C)C(C)(C)O	≤ 1000 nM	
CC(=O)O[C@@H]([C@H]1C[C@@H](C)[C@H]2[C@H](O1)[C@H](O)[C@@]1(C)[C@@H]3CC[C@H]4C(C)(C)[C@@H](O[C@H]5CN(CC(F)(F)F)CCO5)CC[C@@]45C[C@@]35CC[C@]21C)C(C)(C)O	≤ 1000 nM	

SMILES	IC50	other results
CC(=O)O[C@@H]([C@H]1C[C@@H](C)[C@H]2[C@H](O1)/C(=N/O)[C@H]1C3CCC4C(C)(C)[C@@H](OC5OC[C@@H](O)[C@H](O)[C@H]5O)CC[C@@]45C[C@@]35CC[C@]21C)C(C)(C)O (stereo partly shown)	≤ 1000 nM	
CC(=O)O[C@@H]([C@H]1C[C@@H](C)[C@H]2[C@H](O1)C1(SCCS1)[C@@]1(C)C3CCC4C(C)(C)[C@@H](O)CC[C@]4(C)C3=CC[C@]21C)C(C)(C)O (stereo partly shown)	1000 to 10000 nM	
CC(=O)O[C@@H]([C@H]1C[C@@H](C)[C@H]2[C@H](O1)[C@H](O)[C@@]1(C)[C@@H]3CC[C@H]4C(C)(C)[C@@H](O[C@@H](CN(C)C)OCCN(C)C)CC[C@@]45C[C@@]35CC[C@]21C)C(C)(C)O	1000 to 10000 nM	
CC(=O)O[C@@H]([C@H]1C[C@@H](C)[C@H]2[C@H](O1)[C@H](O)[C@@]1(C)[C@@H]3CC[C@H]4C(C)(C)[C@@H](O[C@H]5CN(C6COC6)CCO5)CC[C@@]45C[C@@]35CC[C@]21C)C(C)(C)O	≤ 1000 nM	
CCN1CCO[C@@H](O[C@H]2CC[C@]34C[C@]35CC[C@]3(C)[C@@H]6[C@H](O[C@@H]([C@H](OC(C)=O)C(C)(C)O)C[C@H]6C)[C@H](O)[C@@]3(C)[C@@H]5CC[C@H]4C2(C)C)C1	≤ 1000 nM	
CCCN1CCO[C@@H](O[C@H]2CC[C@]34C[C@]35CC[C@]3(C)[C@@H]6[C@H](O[C@@H]([C@H](OC(C)=O)C(C)(C)O)C[C@H]6C)[C@H](O)[C@@]3(C)[C@@H]5CC[C@H]4C2(C)C)C1	1000 to 10000 nM	
CC(=O)O[C@@H]([C@H]1C[C@@H](C)[C@H]2[C@H](O1)[C@H](O)[C@@]1(C)[C@@H]3CC[C@H]4C(C)(C)C(OC(=O)c5ccncc5)CC[C@@]45C[C@@]35CC[C@]21C)C(C)(C)O (stereo partly shown)	≤ 1000 nM	
CC(=O)O[C@@H]([C@H]1C[C@@H](C)[C@H]2[C@H](O1)[C@H](O)[C@@]1(C)[C@@H]3CC[C@H]4C(C)(C)C(OC(=O)[C@@H]5CCCN5)CC[C@@]45C[C@@]35CC[C@]21C)C(C)(C)O (stereo partly shown)	≤ 1000 nM	
CC(=O)O[C@@H]([C@H]1C[C@@H](C)[C@H]2[C@H](O1)[C@H](O)[C@@]1(C)[C@@H]3CC[C@H]4C(C)(C)C(OC(=O)C5CCCO5)CC[C@@]45C[C@@]35CC[C@]21C)C(C)(C)O (stereo partly shown)	≤ 1000 nM	
CC(C)C(O)[C@H]1C[C@@H](C)[C@H]2[C@H](O1)[C@H](O)[C@@]1(C)[C@@H]3CC[C@H]4C(C)(C)[C@@H](O)CC[C@@]45C[C@@]35CC[C@]21C (stereo partly shown)	> 10000 nM	inhibition at 20 µM [1]: < 25%
C[C@@H]1C[C@H]([C@H](O)C(C)(C)O)O[C@H]2[C@H]1[C@@]1(C)CC[C@@]34C[C@@]35CC[C@H](O[C@H]3CN(CC(N)=O)CCO3)C(C)(C)[C@@H]5CC[C@H]4[C@]1(C)[C@H]2O	> 10000 nM	inhibition at 20 µM [1]: < 25%
CC(=O)O[C@@H]([C@H]1C[C@@H](C)[C@H]2[C@H](O1)[C@H](O)[C@@]1(C)[C@@H]3CC[C@H]4C(C)(C)[C@@H](O[C@H]5CN(CCOCCOCCNC(=O)CCCC[C@@H]6SC[C@@H]7NC(=O)N[C@@H]76)CCO5)CC[C@@]45C[C@@]35CC[C@]21C)C(C)(C)O	≤ 1000 nM	
CC(=O)O[C@@H]([C@H]1C[C@@H](C)[C@H]2[C@H](O1)[C@H](O)[C@@]1(C)[C@@H]3CC[C@H]4C(C)(C)[C@@H](OS(C)(=O)=O)CC[C@@]45C[C@@]35CC[C@]21C)C(C)(C)O	> 10000 nM	
CC(=O)O[C@@H]([C@H]1C[C@@H](C)[C@H]2[C@H](O1)[C@H](O)[C@@]1(C)[C@@H]3CC[C@H]4C(C)(C)[C@@H](OC(=O)Cc5ccccn5)CC[C@@]45C[C@@]35CC[C@]21C)C(C)(C)O	≤ 1000 nM	
C[C@@H]1C[C@H](CO)O[C@H]2C1[C@@]1(C)CC[C@@]34C[C@@]35CC[C@H](O[C@@H]3OC[C@@H](O)[C@H](O)[C@H]3O)C(C)(C)[C@@H]5CC[C@H]4[C@]1(C)[C@H]2O (stereo partly shown)	> 10000 nM	
CC(=O)O[C@@H]([C@H]1C[C@@H](C)[C@H]2[C@H](O1)[C@H](O)[C@@]1(C)[C@@H]3CC[C@H]4C(C)(C)[C@@H](O[C@H]5CN(S(C)(=O)=O)CCO5)CC[C@@]45C[C@@]35CC[C@]21C)C(C)(C)O	≤ 1000 nM	
CC1CC(C(O)C(C)(C)O)OC2C1C1(C)CCC34CC35CCC(OC3CN(C(=O)c6cc(F)cc(F)c6)CCO3)C(C)(C)C5CCC4C1(C)C2O (stereo not shown)		% Inhibition (range) (Aβ-42, 20 umol/L): E E (% inhibition of 25-75%); % Inhibition (range) (Aβ-42, 100 umol/L): E E (% inhibition of 25-75%)
